{
  "source": "patent US4981789A",
  "about": "“One-step enzymatic conversion of cephalosporin C and derivatives to 7-aminocephalosporanic acid and derivatives” (priority 1987, dated 1991)",
  "system": "cephalosporin C amidase",
  "test": "Conversion of desacetoxycephalosporin C to 7-ADCA by cephalosporin C amidase",
  "format": "biochemical, Arthrobacter viscosus ATCC 53594",
  "description": "As already described above, desacetoxycephalosporin C (DOAC) may be converted to 7-aminodesacetoxycephalosporanic acid (7-ADCA) using the enzyme and method of the present invention. This conversion may be illustrated as follows: [drawing 10] Cephalosporin C amidase, prepared as described above in Example 1, was incubated with 2 mg/ml DAOC for 3 hrs at 37° C. The reaction mixture required a pre-chromatography separation step using XAD-16® (Rohm and Haas) macroreticular water insoluble cross linked adsorbent polymer to remove coeluting contaminants. Chromatography was carried out in accordance with the procedures described above in Example 1 (except that the mobile phase consisted of 1 liter deionized water, 1.88 g hexyl sodium sulfonate, 2.025 ml phosphoric acid, and 25 ml acetonitrile, pH 2.75), and established that approximately 0.5 to 1.0% of the original DOAC substrate had been converted to 7-ADCA.",
  "data": [
    {"smiles": "CC1=C(C(=O)O)N2C(=O)C(NC(=O)CCCC(N)C(=O)O)C2SC1", "note": "(stereo not shown) [DOAC, desacetoxycephalosporin C]", "values": [
      {"measurement": "extent of conversion to 7-ADCA compared with conversion of cephalosporin C to 7-ACA", "value": "essentially equivalent to the conversion of cephalosporin C to 7-aminocephalosporanic acid"}
    ]}
  ]
}
